“And” between values parts separate entries of the source, which are not always exact repeats. Equal values may be shown once.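 1) Cells in 96-well plates. 2) Compound, 48 h, 5 concentrations. 3) Linear interpolation between surrounding doses. 4) Unreached endpoint = highest concentration. Abbreviation: GI50, concentration required for 50% inhibition of growth. TGI marks complete inhibition of growth.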
Assays:
Experiment in all cases: NCI-60 cell line screen, 48 h
[1] = tested on: CCRF-CEM leukemia
[2] = tested on: COLO 205 colon
[3] = tested on: EKVX NSCLC
[4] = tested on: HOP-92 NSCLC
[5] = tested on: KM12 colon
[6] = tested on: NCI-H226 lung
[7] = tested on: NCI-H460 lung
[8] = tested on: OVCAR-3 ovarian
[9] = tested on: SF-295 CNS
[10] = tested on: SK-OV-3 ovarian

`CCCCCCCCCCCCCCCCCC1=NC(C)(C)CN1CCO` gave a GI50 [1] of 1.92 µM, a TGI [1] of 5.05 µM and a GI50 [2] of 1.55 µM. For the same molecule, the TGI [2] was 2.93 µM, the GI50 [3] was 3.8 µM and the TGI [3] was 18.6 µM. It also gave a GI50 [4] of 1.4 µM, a TGI [4] of 7.84 µM and a GI50 [5] of 1.78 µM. The TGI [5] was 3.16 µM, the GI50 [6] was 2.84 µM and the TGI [6] was 9.04 µM. The GI50 [7] was 1.97 µM, the TGI [7] was 3.65 µM and the GI50 [8] was 1.61 µM. It also gave a TGI [8] of 2.97 µM, a GI50 [9] of 1.79 µM and a TGI [9] of 3.68 µM. For the same molecule, the GI50 [10] was 1.72 µM and the TGI [10] was 3.16 µM.

For `CCCOc1c2cc(COC3OC(CO)C(O)C(O)C3O)cc1Cc1cc(COC3OC(CO)C(O)C(O)C3O)cc(c1OCCC)Cc1cc(COC3OC(CO)C(O)C(O)C3O)cc(c1OCCC)Cc1cc(COC3OC(CO)C(O)C(O)C3O)cc(c1OCCC)C2` (centres undefined), the GI50 [1] was 7.52 µM and 17.6 µM, the TGI [1] was > 100 µM and 36.5 µM and the GI50 [2] was 38.9 µM and 35.9 µM and 13.1 µM. The TGI [2] was > 100 µM and 26.1 µM, the GI50 [3] was > 100 µM and 35.5 µM and the TGI [3] was > 100 µM. For the same molecule, the TGI [4] was > 100 µM, the GI50 [5] was 75.4 µM and > 100 µM and 19.3 µM and the TGI [5] was > 100 µM and 39.2 µM. The GI50 [6] was 59.2 µM and > 100 µM and 17.7 µM, the TGI [6] was > 100 µM and 40.1 µM and the GI50 [7] was 56.9 µM and > 100 µM and 30.3 µM. For the same molecule, the TGI [7] was > 100 µM and 92.3 µM, the GI50 [8] was 53.2 µM and > 100 µM and 19.3 µM and the TGI [8] was > 100 µM and 51.7 µM. For the same molecule, the GI50 [9] was 67.5 µM and 84.6 µM and 17.4 µM, the TGI [9] was > 100 µM and 35.7 µM and the GI50 [10] was > 100 µM and 34.9 µM. For the same molecule, the TGI [10] was > 100 µM.

`COc1cc(CC(=O)c2ccc3c(c2)OCO3)cc(OC)c1OC` was tested, and the TGI [1] was > 100 µM, the TGI [2] was > 100 µM and the TGI [3] was > 100 µM. The TGI [4] was > 100 µM, the TGI [5] was > 100 µM and the TGI [6] was > 100 µM. For the same molecule, the TGI [7] was > 100 µM, the TGI [8] was > 100 µM and the TGI [9] was > 100 µM. For the same molecule, the TGI [10] was > 100 µM.

With `N#CC1(C#N)C2C=CC(C3CCC=C32)C1(C#N)C#N` (centres undefined) the TGI [1] was > 7.86 µM, the TGI [2] was 3.66 µM and the TGI [3] was > 10 µM. For the same molecule, the TGI [4] was > 10 µM, the TGI [5] was > 10 µM and the TGI [6] was > 10 µM. For the same molecule, the TGI [7] was > 10 µM, the TGI [8] was > 10 µM and the TGI [9] was > 10 µM. For the same molecule, the TGI [10] was > 10 µM.

In the case of `Cc1cccc(N2C(=O)/C(=C/c3ccc(N(CCC#N)CCC#N)cc3C)N=C2c2cc([N+](=O)[O-])ccc2Cl)c1`, the TGI [1] was > 100 µM, the TGI [2] was > 100 µM and the TGI [3] was > 100 µM. The TGI [4] was > 100 µM, the TGI [5] was > 100 µM and the TGI [6] was > 100 µM. The TGI [7] was > 100 µM, the TGI [8] was > 100 µM and the TGI [9] was > 100 µM. The TGI [10] was > 100 µM.

`OCCCCC#Cc1ccccc1C#Cc1cnccn1` was tested, and the GI50 [1] was 26.9 µM, the TGI [1] was > 100 µM and the GI50 [2] was 32 µM. The TGI [2] was > 100 µM, the GI50 [3] was 36.5 µM and the TGI [3] was 95.3 µM. It also gave a GI50 [4] of 19.5 µM, a TGI [4] of 88.4 µM and a GI50 [5] of 36.2 µM. The TGI [5] was > 100 µM, the GI50 [6] was 40 µM and the TGI [6] was > 100 µM. For the same molecule, the GI50 [7] was 27.4 µM, the TGI [7] was 96.9 µM and the GI50 [8] was 31.3 µM. The TGI [8] was > 100 µM, the GI50 [9] was 28.1 µM and the TGI [9] was 91.6 µM. For the same molecule, the GI50 [10] was 46.3 µM and the TGI [10] was > 100 µM.

`CCNC(=O)Oc1ccc(/C(=C(\C)c2ccc(Cl)cc2)c2ccc(OCCN3CCCCC3)cc2)cc1` gave a GI50 [1] of 3.26 µM, a TGI [1] of 11.8 µM and a GI50 [2] of 2.1 µM. The TGI [2] was 4.6 µM, the GI50 [3] was 6.14 µM and the TGI [3] was 21.9 µM. For the same molecule, the GI50 [4] was 2.7 µM, the TGI [4] was 9.25 µM and the GI50 [5] was 3.81 µM. The TGI [5] was 15.4 µM, the GI50 [6] was 14.4 µM and the TGI [6] was 36.7 µM. It also gave a GI50 [7] of 2.19 µM, a TGI [7] of 4.64 µM and a GI50 [8] of 3.52 µM. It also gave a TGI [8] of 13.4 µM, a GI50 [9] of 1.95 µM and a TGI [9] of 4.36 µM. The GI50 [10] was 8.52 µM and the TGI [10] was 21.3 µM.

Source: PubChem BioAssay (NCI)
